Earlier results on 1 substance are cited in publication PMC4191344, “Identification and characterization of Aβ peptide interactors in Alzheimer’s disease by structural approaches” (Frontiers in Aging Neuroscience, 2014).

This series concerns Aβ. The following applies: in vitro; ref Pollio et al., 2008. An excerpt: Early literature was somewhat conflicting explicating the role of the EP24.15 metalloenzyme in the etiology of AD. This enzyme was originally erroneously thought to be the β-secretase activity initiating the processing of the APP into Aβ (Papastoitsis et al., [1994]) prior to the discovery of the beta amyloid cleaving enzyme-1 (BACE-1). The EP24.15 gene is located at a chromosomal locus that is close to a region involved with early onset AD (Meckelein et al., [1996]). […] In older transgenic animals, EP24.15 protein was increased in the hippocampus, supportive of a role in Aβ clearance though there was no attributable mechanism.

Consider “EP24.15: soluble, 77 kD metalloendopeptidase in the family of zinc metallopeptidases”, for which the “inhibition of Aβ toxicity by EP24.15 expression” value is given as “inhibit the toxicity of Aβ in vitro”.
